{"source": "ChEMBL document CHEMBL1155693", "about": "“Structures of five components of the actinomycin Z complex from Streptomyces fradiae, two of which contain 4-chlorothreonine” (2000)", "format_in_all_cases": "functional", "key": {"Bacillus subtilis": {"test_system": "Bacillus subtilis", "assay": "Antibacterial activity against Bacillus subtilis ATCC 6051 after 18 hrs", "details": "ATCC 6051, 18 h"}, "[1]": {"assay": "Cytotoxicity against human HMO2 cells after 48 hrs by sulforhodamine assay", "details": "HMO2, 48 h; for CC50: read-out: LC50 (the source's name)"}, "HepG2": {"test_system": "HepG2", "assay": "Cytotoxicity against human HepG2 cells after 48 hrs by sulforhodamine assay", "details": "HepG2, 48 h"}, "MCF7": {"test_system": "MCF7", "assay": "Cytotoxicity against human MCF7 cells after 48 hrs by sulforhodamine assay", "details": "MCF7, 48 h; for CC50: read-out: LC50 (the source's name)"}}, "note": "*1 amine or outer side, *2 acyl side, *3 side chain or, on linkers, in order; H or OH if unused. Where a SMILES comes first, the peptide text is derived from it. Bridges are numbered along the chain shown (N, C = ends). Roman numbers before positions name the chains, in order. [ ]: non-standard residue; d: D form. Actinocin(1to9) = Cc1c2oc3c(C)ccc(C(=O)[*:2])c3nc-2c(C(=O)[*:1])c(N)c1=O; NMeV = CN[C@H](C(=O)O)C(C)C; Sar = CNCC(=O)O"}
{"smiles": "Cc1c2oc3c(C)ccc(C(=O)N[C@@H]4C(=O)N[C@H](C(C)C)C(=O)N5[C@H](C(=O)N(C)CC(=O)N(C)[C@@H](C(C)C)C(=O)O[C@@H]4C)[C@@H](O)C[C@@H]5C)c3nc-2c(C(=O)N[C@@H]2C(=O)N[C@H](C(C)C)C(=O)N3[C@@H](C)C(=O)C[C@H]3C(=O)N(C)CC(=O)N(C)[C@@H](C)C(=O)O[C@H]2CO)c(N)c1=O", "note": "[ACTINOMYCIN Z1]", "values": [{"measurement": "MIC", "setting": "Bacillus subtilis", "result": 12.5, "unit": "µg/mL"}, {"measurement": "GI50", "setting": "[1]", "result": 750, "unit": "nM"}, {"measurement": "TGI", "setting": "[1]", "result": 5800, "unit": "nM"}, {"measurement": "CC50", "setting": "[1]", "result": "> 50000", "unit": "nM"}, {"measurement": "GI50", "setting": "HepG2", "result": 950, "unit": "nM"}, {"measurement": "LC50", "setting": "HepG2", "result": "> 50000", "unit": "nM"}, {"measurement": "TGI", "setting": "HepG2", "result": 5500, "unit": "nM"}, {"measurement": "GI50", "setting": "MCF7", "result": "< 500", "unit": "nM"}, {"measurement": "TGI", "setting": "MCF7", "result": "> 50000", "unit": "nM"}, {"measurement": "CC50", "setting": "MCF7", "result": "> 50000", "unit": "nM"}]}
{"smiles": "Cc1c2oc3c(C)ccc(C(=O)N[C@@H]4C(=O)N[C@H](C(C)C)C(=O)N5[C@H](C(=O)N(C)CC(=O)N(C)[C@@H](C(C)C)C(=O)O[C@@H]4C)[C@@H](O)C[C@@H]5C)c3nc-2c(C(=O)N[C@@H]2C(=O)N[C@H](C(C)C)C(=O)N3[C@@H](C)C(=O)C[C@H]3C(=O)N(C)CC(=O)N(C)[C@@H](C)C(=O)O[C@H]2CCl)c(N)c1=O", "note": "[ACTINOMYCIN Z3]", "values": [{"measurement": "MIC", "setting": "Bacillus subtilis", "result": 0.2, "unit": "µg/mL"}, {"measurement": "GI50", "setting": "[1]", "result": "< 100", "unit": "nM"}, {"measurement": "TGI", "setting": "[1]", "result": "< 100", "unit": "nM"}, {"measurement": "CC50", "setting": "[1]", "result": 280, "unit": "nM"}, {"measurement": "GI50", "setting": "HepG2", "result": "< 100", "unit": "nM"}, {"measurement": "LC50", "setting": "HepG2", "result": "> 50000", "unit": "nM"}, {"measurement": "TGI", "setting": "HepG2", "result": 1400, "unit": "nM"}, {"measurement": "GI50", "setting": "MCF7", "result": "< 100", "unit": "nM"}, {"measurement": "TGI", "setting": "MCF7", "result": "< 100", "unit": "nM"}, {"measurement": "CC50", "setting": "MCF7", "result": 500, "unit": "nM"}]}
{"smiles": "Cc1c2oc3c(C)ccc(C(=O)N[C@@H]4C(=O)N[C@H](C(C)C)C(=O)N5CCC[C@H]5C(=O)N(C)CC(=O)N(C)[C@@H](C(C)C)C(=O)O[C@@H]4C)c3nc-2c(C(=O)N[C@@H]2C(=O)N[C@H](C(C)C)C(=O)N3CCC[C@H]3C(=O)N(C)CC(=O)N(C)[C@@H](C(C)C)C(=O)O[C@@H]2C)c(N)c1=O", "note": "[DACTINOMYCIN] (I: T[dV]P[Sar][NMeV] / II: T[dV]P[Sar][NMeV]; ester I:1-I:C, II:1-II:C; linker I:N-II:N via Actinocin(1to9))", "values": [{"measurement": "MIC", "setting": "Bacillus subtilis", "result": 0.78, "unit": "µg/mL"}, {"measurement": "GI50", "setting": "[1]", "result": 300, "unit": "nM"}, {"measurement": "TGI", "setting": "[1]", "result": 800, "unit": "nM"}, {"measurement": "CC50", "setting": "[1]", "result": "> 50000", "unit": "nM"}, {"measurement": "GI50", "setting": "HepG2", "result": 1000, "unit": "nM"}, {"measurement": "TGI", "setting": "HepG2", "result": 4000, "unit": "nM"}, {"measurement": "GI50", "setting": "MCF7", "result": 500, "unit": "nM"}, {"measurement": "TGI", "setting": "MCF7", "result": 2200, "unit": "nM"}, {"measurement": "CC50", "setting": "MCF7", "result": "> 50000", "unit": "nM"}]}
{"smiles": "Cc1c2oc3c(C)ccc(C(=O)N[C@@H]4C(=O)N[C@H](C(C)C)C(=O)N5[C@@H](C)CC[C@H]5C(=O)N(C)CC(=O)N(C)[C@@H](C(C)C)C(=O)O[C@@H]4C)c3nc-2c(C(=O)N[C@@H]2C(=O)N[C@H](C(C)C)C(=O)N3[C@@H](C)C(=O)C[C@H]3C(=O)N(C)CC(=O)N(C)[C@@H](C)C(=O)O[C@H]2CCl)c(N)c1=O", "note": "[ACTINOMYCIN Z5]", "values": [{"measurement": "MIC", "setting": "Bacillus subtilis", "result": 0.78, "unit": "µg/mL"}, {"measurement": "GI50", "setting": "[1]", "result": "< 100", "unit": "nM"}, {"measurement": "TGI", "setting": "[1]", "result": "< 100", "unit": "nM"}, {"measurement": "CC50", "setting": "[1]", "result": 500, "unit": "nM"}, {"measurement": "GI50", "setting": "HepG2", "result": 1500, "unit": "nM"}, {"measurement": "LC50", "setting": "HepG2", "result": "> 50000", "unit": "nM"}, {"measurement": "TGI", "setting": "HepG2", "result": 10000, "unit": "nM"}, {"measurement": "GI50", "setting": "MCF7", "result": "< 100", "unit": "nM"}, {"measurement": "TGI", "setting": "MCF7", "result": 120, "unit": "nM"}, {"measurement": "CC50", "setting": "MCF7", "result": 500, "unit": "nM"}]}
